Data reported in article PMC5923142, “Selection and Characterization of Rupintrivir-Resistant Norwalk Virus Replicon Cells In Vitro” (Antimicrobial Agents and Chemotherapy, 2018).

System: recombinant MNV I109V mutant
Assay: Antiviral effect against recombinant MNV I109V mutant infection of BV-2 cells (TCID50)
Format: cell-based, murine norovirus
Settings: MOIs 0.1 and 1
Procedure: BV-2 cells were infected with recombinant WT MNV or the MNV I109V mutant at an MOI of 0.1 or 1 for 1 h in the CO2 incubator at 37°C. After incubation, the supernatant was removed and the cells were washed twice with PBS, and then complete DMEM containing various concentrations of rupintrivir or 2CMC was added to the cells. After 24 h for incubation, the virus titers of the supernatant were determined by measurement of the TCID50. On the basis of the TCID50, the 90% effective concentration (EC90) values of rupintrivir and 2CMC were calculated using XLfit (version 5.3) software.

C[C@@]1(O)[C@H](O)[C@@H](CO)O[C@H]1n1ccc(N)nc1=O [2CMC, 2-C-methylcytidine]
difference in EC90 values between I109V and WT viruses: no significant difference
